Laboratory results published in the supplement of paper PMC10307832.

Columns and labels:
Experiment in all cases: relative viability (nuclei count vs DMSO), 5 days (fraction); higher = more cells survive
Cediranib + Navitoclax = compound: COc1cc2c(Oc3ccc4[nH]c(C)cc4c3F)ncnc2cc1OCCCN1CCCC1 [Cediranib] + CC1(C)CCC(c2ccc(Cl)cc2)=C(CN2CCN(c3ccc(C(=O)NS(=O)(=O)c4ccc(N[C@H](CCN5CCOCC5)CSc5ccccc5)c(S(=O)(=O)C(F)(F)F)c4)cc3)CC2)C1 [Navitoclax] (partner 0.5 µM)
Outline: (§1)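 A single step with final 0.05% Triton X-100, 1% formaldehyde and 1 ug/ml Hoechst fixed the cells and stained nuclei 5 days after treatment. Lung cancer cell lines in 1536-well plates had been treated by pin tool the day after seeding with one drug alone or a fixed anchor-drug dose plus five library-drug doses (not always all listed) in √10 steps, and nuclei were counted on 4× images. Relative viability is the ratio of nuclei in treated wells to nuclei in vehicle wells, taken as the median of duplicate plates.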

Decitabine + Olaparib = compound: Nc1ncn([C@H]2C[C@H](O)[C@@H](CO)O2)c(=O)n1 [Decitabine] + O=C(c1cc(Cc2n[nH]c(=O)c3ccccc23)ccc1F)N1CCN(C(=O)C2CC2)CC1 [Olaparib] (partner 8 µM)
Outline: as §1

Halofuginone + OSI-027 = compound: O=C(C[C@H]1NCCC[C@@H]1O)Cn1cnc2cc(Br)c(Cl)cc2c1=O (racemic) [Halofuginone] + COc1cccc2cc(-c3nc([C@H]4CC[C@H](C(=O)O)CC4)n4ncnc(N)c34)[nH]c12 [OSI-027] (partner 0.5 µM)
Outline: as §1

Cediranib + Linsitinib = compound: COc1cc2c(Oc3ccc4[nH]c(C)cc4c3F)ncnc2cc1OCCCN1CCCC1 [Cediranib] + C[C@]1(O)C[C@@H](c2nc(-c3ccc4ccc(-c5ccccc5)nc4c3)c3c(N)nccn32)C1 [Linsitinib] (partner 1 µM)
Outline: as §1

Cell Line | relative viability (Cediranib + Navitoclax; first compound 0.04 µM) | relative viability (Cediranib + Navitoclax; first compound 0.1265 µM) | relative viability (Cediranib + Navitoclax; first compound 0.4 µM) | relative viability (Cediranib + Navitoclax; first compound 1.265 µM) | relative viability (Cediranib + Navitoclax; first compound 4 µM) | relative viability (Decitabine + Olaparib; first compound 0.04 µM) | relative viability (Decitabine + Olaparib; first compound 0.1265 µM) | relative viability (Decitabine + Olaparib; first compound 0.4 µM) | relative viability (Decitabine + Olaparib; first compound 1.265 µM) | relative viability (Decitabine + Olaparib; first compound 4 µM) | relative viability (Halofuginone + OSI-027; first compound 0.001 µM) | relative viability (Halofuginone + OSI-027; first compound 0.003162 µM) | relative viability (Halofuginone + OSI-027; first compound 0.01 µM) | relative viability (Halofuginone + OSI-027; first compound 0.03162 µM) | relative viability (Halofuginone + OSI-027; first compound 0.1 µM) | relative viability (Cediranib + Linsitinib; first compound 0.04 µM) | relative viability (Cediranib + Linsitinib; first compound 0.1265 µM) | relative viability (Cediranib + Linsitinib; first compound 0.4 µM) | relative viability (Cediranib + Linsitinib; first compound 1.265 µM) | relative viability (Cediranib + Linsitinib; first compound 4 µM)
NCI-H1944 | 1.08 | 1.11 | 0.95 | 0.981 | 1.01 | 0.281 | 0.307 | 0.255 | 0.192 | 0.207 | 0.422 | 0.431 | 0.447 | 0.404 | 0.343 | 1.38 | 1.45 | 1.14 | 1.02 | 1.12
HCC-78 | 0.934 | 0.824 | 0.764 | 0.762 | 0.758 | 0.458 | 0.433 | 0.382 | 0.272 | 0.241 | 0.347 | 0.334 | 0.363 | 0.396 | 0.407 | 0.664 | 0.625 | 0.478 | 0.487 | 0.502
PC-3 [JPC-3] | 0.715 | 0.705 | 0.735 | 0.849 | 0.801 |  | 0.762 | 0.368 | 0.465 | 0.455 | 0.798 | 0.804 | 0.75 | 0.76 | 0.736 | 0.991 | 0.942 | 0.907 | 0.93 | 1.04
EKVX | 1.01 | 0.74 | 0.912 | 0.903 | 1.02 | 0.551 | 0.454 | 0.322 | 0.252 | 0.232 | 0.656 | 0.789 | 0.773 | 0.499 | 0.539 | 1.05 | 1.03 | 0.889 | 1 | 0.86
NCI-H460 | 1.12 | 1.1 | 0.938 | 0.993 | 1.33 | 0.176 | 0.118 | 0.0739 | 0.0563 | 0.0657 | 0.715 | 0.728 | 0.614 | 0.557 | 0.131 | 0.86 | 0.757 | 0.702 | 0.727 | 0.676
NCI-H727 | 0.404 | 0.409 | 0.38 | 0.532 | 0.583 | 0.643 | 0.54 | 0.685 | 0.55 | 0.481 | 0.6 | 0.572 | 0.713 | 0.709 | 0.411 | 0.293 | 0.267 | 0.33 | 0.372 | 0.279
NCI-H838 | 1.17 | 1.07 | 1.17 | 1.1 | 1.41 | 0.26 | 0.273 | 0.261 | 0.193 | 0.199 | 0.39 | 0.414 | 0.413 | 0.339 | 0.16 | 1.06 | 1.03 | 0.956 | 0.984 | 1.03
NCI-H1792 | 0.446 | 0.442 | 0.588 | 0.668 | 0.393 | 0.211 | 0.288 | 0.148 | 0.0819 | 0.116 | 0.71 | 0.749 | 0.801 | 0.737 | 0.592 | 0.61 | 0.701 | 0.535 | 0.674 | 0.574
H3255 | 0.673 | 0.429 | 0.447 | 0.453 | 0.376 | 0.487 | 0.469 | 0.415 | 0.43 | 0.378 | 0.598 | 0.55 | 0.602 | 0.601 | 0.553 | 1.04 | 1.04 | 0.89 | 0.898 | 0.912
EPLC-272H | 1.35 |  | 1.05 | 1.15 | 1.27 | 0.32 | 0.255 |  | 0.15 | 0.337 | 0.342 | 0.278 | 0.262 | 0.29 | 0.257 | 1.17 |  | 1.16 | 1.18 | 1.29
NCI-H647 | 1.11 |  | 1.16 | 1.12 | 1.14 | 0.154 | 0.131 | 0.103 | 0.0693 | 0.0747 | 0.654 | 0.623 | 0.618 | 0.715 | 0.334 | 1.34 | 1.13 | 1.15 | 1.11 | 1.41
LXF-289 | 0.97 | 0.878 | 0.948 | 0.926 | 0.957 | 0.302 | 0.255 | 0.203 | 0.157 | 0.128 | 0.762 | 0.885 | 0.819 | 0.785 | 0.542 | 0.986 | 0.903 | 0.93 | 0.942 | 0.902
NCI-H1755 | 1.05 | 1 | 0.974 | 0.998 | 1.07 | 0.648 | 0.609 | 0.43 | 0.359 | 0.365 | 0.76 | 0.788 | 0.677 | 0.753 | 0.627 | 0.997 | 1.06 | 0.967 | 0.972 | 1.03
HCC-15 | 0.742 |  | 0.693 | 0.678 | 0.767 | 0.472 | 0.363 | 0.253 | 0.178 | 0.168 | 0.709 | 0.667 | 0.644 | 0.709 | 0.509 | 0.873 |  | 0.793 | 0.947 | 1.02
EMC-BAC-2 | 1.3 | 1.16 | 1.12 | 1.17 | 1.06 |  | 0.405 | 0.371 | 0.298 | 0.294 | 0.4 | 0.397 | 0.38 | 0.4 | 0.315 | 0.872 | 0.832 | 0.799 | 0.777 | 0.837
NCI-H1734 | 0.759 | 0.83 | 0.846 | 0.807 | 0.842 | 0.274 | 0.302 | 0.203 | 0.152 | 0.191 | 0.579 | 0.587 | 0.543 | 0.554 | 0.501 | 0.932 | 0.847 | 0.928 | 0.776 | 1
